We go through eleven compounds from ChEMBL document CHEMBL1201862, “PubChem BioAssay data set” (2004).

Experiment [1] can be described thus: Luminescence Cell-Based Dose Confirmation HTS to Identify Inhibitors of Polyadenylation. Type of experiment: functional.
Experiment [2] concerns the target Heat shock protein HSP 90-alpha (Homo sapiens, UniProt P07900). Type of experiment: functional, organism-based.
A further experiment concerns the target Genome polyprotein (dengue virus type 2, UniProt P29990). Kind of experiment: flavivirus cap methylation enzyme inhibition – biochemical, confirmation dose response, primary screen (AID 588689). Type of experiment: functional.
The nature of experiment [3]: mRNA 3' processing disruption, beta-gal signal increase – luminescence, S. cerevisiae SKY197-pL101, dose response (AID 2525). Type of experiment: functional, cell-based.
Experiment [4] addresses T1, Microphthalmia-associated transcription factor (Homo sapiens, UniProt O75030).
T1 sequence (O75030 whole entry): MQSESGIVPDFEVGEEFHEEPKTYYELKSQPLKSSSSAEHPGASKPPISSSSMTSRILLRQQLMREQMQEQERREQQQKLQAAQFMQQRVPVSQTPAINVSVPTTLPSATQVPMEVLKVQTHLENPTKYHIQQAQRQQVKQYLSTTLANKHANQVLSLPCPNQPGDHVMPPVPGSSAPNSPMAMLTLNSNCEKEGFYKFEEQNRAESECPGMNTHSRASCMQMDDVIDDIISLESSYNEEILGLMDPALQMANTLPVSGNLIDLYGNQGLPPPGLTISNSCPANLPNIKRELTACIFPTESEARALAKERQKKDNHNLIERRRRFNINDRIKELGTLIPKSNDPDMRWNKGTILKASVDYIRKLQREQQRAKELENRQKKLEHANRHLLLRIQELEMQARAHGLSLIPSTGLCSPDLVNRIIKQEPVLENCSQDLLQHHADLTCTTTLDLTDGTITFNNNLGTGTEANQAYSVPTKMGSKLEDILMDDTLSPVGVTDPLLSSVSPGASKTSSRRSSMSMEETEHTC
Kind of experiment: reducers of TRPM1 reporter luminescence, concentration series – cell-based, SK-MEL-5, cherry-picked, set 3, MITF inhibitor project, dose response (AID 493073).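 Also: SK-MEL-5 melanoma cells with luciferase driven by the MITF target TRPM1 promoter.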 Type of experiment: functional.

Experiment [5] in a line: Luminescence Cell-Based Dose Retest to Confirm Inhibitors of Cancer Stem Cells. [Related pubchem assays (depositor defined):AID2717, AID2721]. Type of experiment: functional. Particulars: Homo sapiens.
Experiment [6] concerns the target Intestinal-type alkaline phosphatase (Homo sapiens, UniProt P09923). Kind of experiment: Dose Response confirmation of uHTS hits from a small molecule inhibitors of human intestinal alkaline phosphatase via a luminescent assay. [Related pubchem assays (depositor defined):AID2544, AID2574]. Type of experiment: functional.
Experiment [7] concerns the target T2, Dual specificity protein phosphatase 6 (Rattus norvegicus, UniProt Q64346).
T2 sequence (Q64346 whole entry): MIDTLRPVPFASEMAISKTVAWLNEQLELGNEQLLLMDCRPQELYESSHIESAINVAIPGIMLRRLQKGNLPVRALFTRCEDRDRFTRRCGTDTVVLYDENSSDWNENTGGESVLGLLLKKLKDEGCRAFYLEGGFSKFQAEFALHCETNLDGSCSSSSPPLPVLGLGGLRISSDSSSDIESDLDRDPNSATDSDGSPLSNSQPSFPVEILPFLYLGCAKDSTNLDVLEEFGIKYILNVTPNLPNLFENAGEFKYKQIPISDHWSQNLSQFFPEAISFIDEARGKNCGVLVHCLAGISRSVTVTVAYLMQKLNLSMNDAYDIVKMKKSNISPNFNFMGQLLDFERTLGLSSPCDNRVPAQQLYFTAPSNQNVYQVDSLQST

The target of experiment [8] is T2, Dual specificity protein phosphatase 6. Type of experiment: functional.
Experiment [9] concerns the target T3, Tyrosine-protein phosphatase non-receptor type 7 (Homo sapiens, UniProt P35236).
T3 sequence (P35236 whole entry): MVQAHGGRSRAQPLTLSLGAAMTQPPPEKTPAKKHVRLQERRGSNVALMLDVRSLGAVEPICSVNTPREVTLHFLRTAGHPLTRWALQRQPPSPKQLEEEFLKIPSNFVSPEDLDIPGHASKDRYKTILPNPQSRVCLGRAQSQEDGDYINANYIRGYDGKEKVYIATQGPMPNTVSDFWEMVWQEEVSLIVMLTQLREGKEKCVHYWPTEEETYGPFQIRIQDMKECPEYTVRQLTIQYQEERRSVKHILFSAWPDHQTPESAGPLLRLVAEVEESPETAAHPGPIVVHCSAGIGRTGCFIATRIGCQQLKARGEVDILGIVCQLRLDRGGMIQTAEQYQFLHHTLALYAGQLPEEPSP
Type of experiment: functional.

The target in experiment [10] is Glyceraldehyde-3-phosphate dehydrogenase (Homo sapiens, UniProt P04406).
A short description of experiment [11]: blockers of bursicon-stimulated LGR2 cAMP reporter – cell-based, HEK293, CRE-luciferase reporter, cherry pick, set 2, dose response (AID 743343).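 Also: transfected cells were stimulated with diluted bursicon conditioned medium after compound addition.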 Type of experiment: functional.
For experiment [12], the target named is Neurotensin receptor type 1 (Homo sapiens, UniProt P30989). Type of experiment: functional.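 Also: Image-based confirmatory dose-response assay measuring agonist activity at NTR1; NTR1-expressing U2OS osteosarcoma cells imaged for beta-arrestin GFP spot formation; agonist potency where compounds increase beta-arrestin recruitment.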
Experiment [13] is described as follows: viability loss in HEK293 cells – cell-based, plate reader, cherry-picked samples, cytotoxicity control, dose response (AID 743446). Type of experiment: functional.
The nature of experiment [14]: toxicity toward HepG2 liver cells – cell-based, plate reader, cherry-pick, antagonist series, cytotoxicity control, dose response (AID 743416). Type of experiment: functional.
The nature of experiment [15]: A549 cell cytotoxicity, dose response, cytotoxicity control, plate reader, cherry-pick, antagonist series (AID 743412). Type of experiment: functional, cell-based.
In experiment [16] the test system is Streptococcus. Kind of experiment: Luminescence Microorganism-Based Dose Response Follow up to Identify Compounds Cytotoxic to Streptococcus. [Related pubchem assays: 1677 (Project Summary), 1915, 1914, 1902 (Retest at Dose), 1900 (Counter Screen), 1662 (Primary HTS)]. Type of experiment: functional, organism-based. Background: A counterscreen serves to expose hits that act by an unwanted route or on another target.

Experiment [17] concerns Streptococcus sp. 'group A'. Briefly: Streptococcus pyogenes SK(-)GAS viability under kanamycin – luminescence, BacTiterGlo, confirmation, counter-screen for streptokinase expression inhibitor project, dose response (AID 1900). Type of experiment: functional, organism-based.
For experiment [18], the system named is Streptococcus. Kind of experiment: GAS UMAA2166 growth inhibition – luminescence, BacTiterGlo, counter-screen for streptokinase expression inhibitor project, dose response (AID 1915).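 Also: potency for reduction of bacterial viability or growth.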 Type of experiment: functional, organism-based.
The target of a further experiment is T4, Streptokinase A (Streptococcus pyogenes serotype M1, UniProt P10520).
T4 sequence (P10520 whole entry): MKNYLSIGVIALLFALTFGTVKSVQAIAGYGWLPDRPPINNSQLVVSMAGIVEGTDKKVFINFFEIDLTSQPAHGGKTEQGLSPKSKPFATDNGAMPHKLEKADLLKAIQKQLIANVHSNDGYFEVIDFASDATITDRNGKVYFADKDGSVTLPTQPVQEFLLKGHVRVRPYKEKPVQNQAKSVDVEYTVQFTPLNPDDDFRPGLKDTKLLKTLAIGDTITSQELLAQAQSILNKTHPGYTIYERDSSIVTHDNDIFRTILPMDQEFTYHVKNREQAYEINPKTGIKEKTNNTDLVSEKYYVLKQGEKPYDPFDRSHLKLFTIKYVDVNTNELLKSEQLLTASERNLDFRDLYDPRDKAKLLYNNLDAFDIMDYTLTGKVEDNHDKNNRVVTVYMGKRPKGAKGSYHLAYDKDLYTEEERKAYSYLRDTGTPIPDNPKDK
Kind of experiment: viability-normalized secreted streptokinase activity reduction – plasminogen activation absorbance, OD405, dose response (AID 1914).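 Also: secreted streptokinase activity via plasminogen activation per viability signal from cell pellet.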 Type of experiment: functional, Streptococcus pyogenes M1 GAS.

In experiment [19] the target is Melanin-concentrating hormone receptor 1 (Homo sapiens, UniProt Q99705). Briefly: Fluorescence-based counterscreen for antagonists of the G-protein coupled receptor 7 (GPR7): cell-based high throughput dose response assay to identify antagonists of the melanin-concentrating hormone receptor 1 (MCHR1). Type of experiment: functional.
The target in experiment [20] is Eukaryotic translation initiation factor 4H (Homo sapiens, UniProt Q15056). Kind of experiment: inhibitors of translation initiation factor eIF4H – SAR follow-up (AID 435011). Type of experiment: functional.
In experiment [21] the target is Polyadenylate-binding protein 1 (Homo sapiens, UniProt P11940). Briefly: PABP inhibition in translation initiation, SAR follow-up (AID 435018). Type of experiment: functional.
For another experiment, the target named is Cytochrome P450 2C9 (Homo sapiens, UniProt P11712). Particulars: Potency.
In experiment [22] the target is T5, Voltage-dependent T-type calcium channel subunit alpha-1H (Homo sapiens, UniProt O95180). Briefly: Inhibitors of T-Type Calcium Channels. [Related pubchem assays (depositor defined):AID449739, AID463087, AID489005, AID493041, AID504579, AID504584, AID504619, AID504628]. Type of experiment: functional.
In experiment [23] the target is T5, Voltage-dependent T-type calcium channel subunit alpha-1H. Type of experiment: functional.
In the next experiment the target is Aspartyl aminopeptidase (Plasmodium falciparum 3D7, UniProt Q8I2J3).
For a further experiment, the target named is Procathepsin L (Homo sapiens, UniProt P07711).
The target in experiment [24] is T6, Cytochrome P450 3A4 (Homo sapiens, UniProt P08684). Particulars: read-out: Potency.
For experiment [25], the target named is T6, Cytochrome P450 3A4. Particulars: Potency.

Molecules are shown by their SMILES. Active and inactive are the calls of the source.

T5 sequence (O95180 whole entry): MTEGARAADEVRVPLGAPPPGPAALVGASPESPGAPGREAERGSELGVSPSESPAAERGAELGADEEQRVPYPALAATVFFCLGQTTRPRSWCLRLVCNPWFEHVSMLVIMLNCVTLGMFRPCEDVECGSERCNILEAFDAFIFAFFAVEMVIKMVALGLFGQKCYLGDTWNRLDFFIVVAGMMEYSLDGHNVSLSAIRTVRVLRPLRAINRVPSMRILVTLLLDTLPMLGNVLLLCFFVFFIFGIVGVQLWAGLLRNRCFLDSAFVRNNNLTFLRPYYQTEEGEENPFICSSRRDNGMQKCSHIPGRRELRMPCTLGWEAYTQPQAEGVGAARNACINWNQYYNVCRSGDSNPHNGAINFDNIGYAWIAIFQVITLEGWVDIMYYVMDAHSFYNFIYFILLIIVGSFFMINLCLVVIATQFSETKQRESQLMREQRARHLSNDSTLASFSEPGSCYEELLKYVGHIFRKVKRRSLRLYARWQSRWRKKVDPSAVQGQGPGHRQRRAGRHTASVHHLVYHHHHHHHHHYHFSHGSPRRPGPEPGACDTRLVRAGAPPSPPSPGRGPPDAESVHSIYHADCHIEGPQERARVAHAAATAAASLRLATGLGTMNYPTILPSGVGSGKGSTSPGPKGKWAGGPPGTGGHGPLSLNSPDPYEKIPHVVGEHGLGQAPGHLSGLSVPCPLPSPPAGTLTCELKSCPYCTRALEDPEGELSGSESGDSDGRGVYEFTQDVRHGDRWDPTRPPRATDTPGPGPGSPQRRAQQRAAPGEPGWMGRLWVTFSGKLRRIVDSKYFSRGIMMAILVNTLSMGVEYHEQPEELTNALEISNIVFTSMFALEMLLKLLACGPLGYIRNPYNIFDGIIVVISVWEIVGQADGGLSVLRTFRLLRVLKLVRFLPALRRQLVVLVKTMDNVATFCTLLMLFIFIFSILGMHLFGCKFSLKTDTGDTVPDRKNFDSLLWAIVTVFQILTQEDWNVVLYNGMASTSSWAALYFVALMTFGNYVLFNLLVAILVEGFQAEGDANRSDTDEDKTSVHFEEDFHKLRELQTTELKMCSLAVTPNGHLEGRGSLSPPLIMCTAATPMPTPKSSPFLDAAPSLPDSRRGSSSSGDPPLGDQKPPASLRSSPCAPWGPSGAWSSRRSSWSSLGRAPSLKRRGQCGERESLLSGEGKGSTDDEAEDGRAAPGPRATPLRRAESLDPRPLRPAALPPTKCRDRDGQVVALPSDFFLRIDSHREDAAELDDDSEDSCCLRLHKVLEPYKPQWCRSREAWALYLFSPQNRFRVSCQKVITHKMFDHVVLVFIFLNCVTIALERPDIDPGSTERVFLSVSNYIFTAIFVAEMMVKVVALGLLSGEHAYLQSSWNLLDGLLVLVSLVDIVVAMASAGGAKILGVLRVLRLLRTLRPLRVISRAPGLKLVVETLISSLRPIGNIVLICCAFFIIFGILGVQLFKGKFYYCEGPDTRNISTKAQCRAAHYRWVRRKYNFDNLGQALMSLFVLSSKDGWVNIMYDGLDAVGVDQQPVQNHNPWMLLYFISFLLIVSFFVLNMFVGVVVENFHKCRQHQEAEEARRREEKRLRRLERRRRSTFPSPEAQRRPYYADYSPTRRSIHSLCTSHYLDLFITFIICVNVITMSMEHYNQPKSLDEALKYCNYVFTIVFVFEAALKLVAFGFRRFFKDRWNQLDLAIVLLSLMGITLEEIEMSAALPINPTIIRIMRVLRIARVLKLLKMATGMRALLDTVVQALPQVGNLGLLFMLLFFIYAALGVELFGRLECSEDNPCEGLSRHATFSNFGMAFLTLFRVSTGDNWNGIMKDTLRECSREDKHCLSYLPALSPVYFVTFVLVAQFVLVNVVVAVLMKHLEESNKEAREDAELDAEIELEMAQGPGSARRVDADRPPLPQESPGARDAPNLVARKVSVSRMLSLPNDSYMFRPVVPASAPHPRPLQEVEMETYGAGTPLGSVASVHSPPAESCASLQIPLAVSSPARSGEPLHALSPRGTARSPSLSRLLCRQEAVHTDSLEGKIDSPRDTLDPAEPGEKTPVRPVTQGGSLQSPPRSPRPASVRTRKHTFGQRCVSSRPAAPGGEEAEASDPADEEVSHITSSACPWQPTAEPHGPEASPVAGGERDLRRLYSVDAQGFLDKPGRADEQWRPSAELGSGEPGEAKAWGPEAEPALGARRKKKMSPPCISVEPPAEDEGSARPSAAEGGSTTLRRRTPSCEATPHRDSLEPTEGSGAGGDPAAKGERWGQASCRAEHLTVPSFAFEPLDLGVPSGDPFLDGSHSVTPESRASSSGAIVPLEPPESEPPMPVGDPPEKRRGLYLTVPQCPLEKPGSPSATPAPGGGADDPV
T6 sequence (P08684 whole entry): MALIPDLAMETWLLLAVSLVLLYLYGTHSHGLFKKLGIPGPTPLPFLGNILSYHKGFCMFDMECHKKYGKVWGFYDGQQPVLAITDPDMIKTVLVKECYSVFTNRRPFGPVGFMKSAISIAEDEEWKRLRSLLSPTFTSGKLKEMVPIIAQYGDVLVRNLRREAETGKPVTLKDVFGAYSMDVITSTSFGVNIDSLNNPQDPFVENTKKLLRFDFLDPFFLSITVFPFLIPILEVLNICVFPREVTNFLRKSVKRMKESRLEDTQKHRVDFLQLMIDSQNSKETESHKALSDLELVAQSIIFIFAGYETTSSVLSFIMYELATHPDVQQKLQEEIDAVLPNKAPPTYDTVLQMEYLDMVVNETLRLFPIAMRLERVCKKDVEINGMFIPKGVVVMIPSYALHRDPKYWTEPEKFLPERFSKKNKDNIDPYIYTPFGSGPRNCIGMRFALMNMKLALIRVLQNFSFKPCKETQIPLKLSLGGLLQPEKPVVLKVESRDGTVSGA
Procathepsin L, sequence (P07711 whole entry): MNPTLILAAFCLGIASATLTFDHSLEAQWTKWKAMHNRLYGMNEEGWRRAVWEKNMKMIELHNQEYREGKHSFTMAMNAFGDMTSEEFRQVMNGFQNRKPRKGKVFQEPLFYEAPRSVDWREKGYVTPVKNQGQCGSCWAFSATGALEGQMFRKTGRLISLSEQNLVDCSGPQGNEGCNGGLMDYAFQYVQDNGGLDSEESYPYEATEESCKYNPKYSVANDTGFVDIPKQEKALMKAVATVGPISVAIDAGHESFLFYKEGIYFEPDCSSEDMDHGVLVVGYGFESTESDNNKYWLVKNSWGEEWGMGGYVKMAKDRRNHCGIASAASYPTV
Polyadenylate-binding protein 1, sequence (P11940 whole entry): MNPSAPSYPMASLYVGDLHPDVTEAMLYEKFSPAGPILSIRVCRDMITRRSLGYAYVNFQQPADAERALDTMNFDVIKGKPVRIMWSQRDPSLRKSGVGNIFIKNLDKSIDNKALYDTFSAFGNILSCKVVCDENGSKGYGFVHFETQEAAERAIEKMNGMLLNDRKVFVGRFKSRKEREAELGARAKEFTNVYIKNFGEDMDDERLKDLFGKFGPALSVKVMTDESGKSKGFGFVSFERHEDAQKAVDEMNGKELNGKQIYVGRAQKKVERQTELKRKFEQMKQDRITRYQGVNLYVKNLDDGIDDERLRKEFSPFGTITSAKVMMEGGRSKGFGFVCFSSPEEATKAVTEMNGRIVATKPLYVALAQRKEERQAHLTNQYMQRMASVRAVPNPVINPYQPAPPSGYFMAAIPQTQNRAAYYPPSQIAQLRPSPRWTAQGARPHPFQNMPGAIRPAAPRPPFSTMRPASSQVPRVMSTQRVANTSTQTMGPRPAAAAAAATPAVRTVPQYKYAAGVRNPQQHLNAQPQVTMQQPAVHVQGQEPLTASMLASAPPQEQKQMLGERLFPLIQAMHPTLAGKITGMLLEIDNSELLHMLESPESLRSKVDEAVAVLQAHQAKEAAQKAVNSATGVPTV
Intestinal-type alkaline phosphatase, sequence (P09923 whole entry): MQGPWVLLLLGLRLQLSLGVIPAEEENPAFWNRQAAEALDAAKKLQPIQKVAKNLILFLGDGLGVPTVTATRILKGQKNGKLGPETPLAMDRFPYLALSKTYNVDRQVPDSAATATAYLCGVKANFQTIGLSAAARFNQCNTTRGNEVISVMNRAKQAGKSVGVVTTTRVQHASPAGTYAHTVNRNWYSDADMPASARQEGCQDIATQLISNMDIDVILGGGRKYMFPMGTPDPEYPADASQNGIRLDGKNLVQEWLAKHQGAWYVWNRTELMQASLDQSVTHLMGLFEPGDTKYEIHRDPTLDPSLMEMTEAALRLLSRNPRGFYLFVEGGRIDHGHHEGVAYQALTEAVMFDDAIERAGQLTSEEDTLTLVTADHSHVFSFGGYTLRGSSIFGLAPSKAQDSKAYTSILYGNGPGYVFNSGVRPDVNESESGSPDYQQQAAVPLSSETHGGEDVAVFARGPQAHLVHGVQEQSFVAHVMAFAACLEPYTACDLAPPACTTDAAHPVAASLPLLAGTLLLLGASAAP
Glyceraldehyde-3-phosphate dehydrogenase, sequence (P04406 whole entry): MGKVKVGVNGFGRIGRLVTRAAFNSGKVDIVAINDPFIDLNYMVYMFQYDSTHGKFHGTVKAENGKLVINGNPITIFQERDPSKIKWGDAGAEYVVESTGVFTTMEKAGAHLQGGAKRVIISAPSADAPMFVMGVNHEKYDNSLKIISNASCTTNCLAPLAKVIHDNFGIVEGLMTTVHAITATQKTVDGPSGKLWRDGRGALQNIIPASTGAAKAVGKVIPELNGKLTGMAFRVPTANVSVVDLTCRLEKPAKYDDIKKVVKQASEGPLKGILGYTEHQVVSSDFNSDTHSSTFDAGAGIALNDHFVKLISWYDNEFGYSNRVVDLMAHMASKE

As usually defined, the EC50 is the midpoint of the concentration-response curve. A word on the IC50: it is the midpoint of a concentration-inhibition curve. As to `Cc1ccc(C(=O)c2no[n+]([O-])c2C(=O)c2ccc(C)cc2)cc1`, the EC50 is 2.92 µM (active) in experiment [1] and 3.01 µM (active) in experiment [3]. Besides, the AC50 is 2.37 µM (active) in [2] and 16.7 µM (active) in experiment [4]. For the same compound, the IC50 at Genome polyprotein was > 100 µM (active).
For `Cc1ccc(NCc2ccc([N+](=O)[O-])s2)cc1`, the AC50 in experiment [5] is > 195 µM (inactive). Also, the IC50 in [6] is > 100 µM (inactive).
With `CCOC(=O)C1Nc2c(O)cccc2C2C=CCC12` (stereo not given), the IC50 in experiment [7] was > 100 µM (inactive); in experiment [8] it was > 100 µM (inactive); in experiment [9] it was > 100 µM (not active); in experiment [10] it was > 100 µM (not active).
As to `O=C(Nc1ccc(N2CCN(C(=O)c3ccccc3)CC2)cc1)c1cc2ccccc2o1`, the AC50 was 5.93 µM (active) in [11], 16.8 µM (active) in experiment [13], 5.12 µM (active) in experiment [14] and 45.5 µM (active) in experiment [15]. The EC50 in experiment [12] was 24.4 µM (inactive).
For `Cc1ccc(/C=C/c2ccc(=O)n(Cc3ccccc3Cl)n2)cc1`, the EC50 in the experiment with Streptococcus [16] is 10.7 µM (active); in experiment [17] it was 6.69 µM (active); with Streptococcus [18], > 50 µM (not active); on Streptokinase A, 10.2 µM (active).
Take `Cc1ccccc1CC1(CO)CCCN(C(=O)c2cc(Cl)ccc2F)C1` (stereo not given): in [19], the IC50 is > 14.6 µM (not active).
Take `COc1cc(C=NNC(=O)c2ccc(O)cc2)ccc1OCC(=O)Nc1cccc([N+](=O)[O-])c1`: the IC50 in experiment [20] and in [21] was > 100 µM (inactive) throughout.
Turning to `COc1cccc(-c2cc(=O)c3cc(O)ccc3o2)c1`, the AC50 at Cytochrome P450 2C9 is 25.1 µM (inconclusive).
Turning to `Cc1cccc(NC(=O)C23CCC(C)(C2Br)C3(C)C)c1` (stereo not given), the EC50 was 5.25 µM (active) in experiment [22] and 2.64 µM (active) in experiment [23].
For the compound `Cc1cc(O)nc(SCC(=O)c2ccc(O)c(O)c2)n1`, the half-inhibitory concentration (IC50) was 1.49 µM (active) at Aspartyl aminopeptidase and > 59.6 µM (not active) against Procathepsin L.
As to `O=c1cccc2n1C[C@H]1CNC[C@H]2C1`, the AC50 at Cytochrome P450 3A4 [24] and on Cytochrome P450 3A4 [25] was 31.6 µM (inconclusive) in each case.
